Test results as given in PubChem BioAssay AID1996.
≈ marks a conversion by molar mass, not a printed value.

settings: buffer; pH 7.4; 200.0 µM

| SMILES | solubility kinetic |
| --- | --- |
| O=C(Nc1ccc(F)cc1)C1CCN(C(=O)c2ccc(F)cc2)CC1 | > 51.7 µg/mL |
| COc1ccc(C(=O)N2CCn3c2nc2ccccc23)cc1 | 6.7 µg/mL (≈ 22.8 µM) |
| CN(C)c1ccc([N+](=O)[O-])cc1C(=O)NCC(c1ccco1)N(C)C (centres undefined) | 47.7 µg/mL (≈ 138 µM) |
| COCC(C)NC(=O)C(C)N1c2cccc3cccc(c23)S1(=O)=O (centres undefined) | 50.9 µg/mL (≈ 146 µM) |
| COc1cc(OC)cc(C(=O)Nc2cccc3cccnc23)c1 | < 0.3 µg/mL |
| O=C(NCCOc1ccccc1F)c1cc([N+](=O)[O-])ccc1N1CCOCC1 | 55.5 µg/mL (≈ 143 µM) |
| O=[N+]([O-])c1cccc(S(=O)(=O)NCCc2cn3ccccc3n2)c1 | 48.5 µg/mL (≈ 140 µM) |
| COc1ccc(/C=C/C(=O)O/N=C(\N)c2ccccn2)cc1OC | 7.8 µg/mL (≈ 23.8 µM) |
| COc1cc(CN2CCc3c([nH]c4ccccc34)C2)cc(OC)c1 | 26 µg/mL (≈ 80.6 µM) |
| O=S(=O)(c1ccc(Br)c2ccccc12)N1CCOCC1 | 17.4 µg/mL (≈ 48.8 µM) |
| COc1cc(CC(=O)OCC(=O)c2ccc[nH]2)cc(OC)c1OC | > 50 µg/mL |
| O=C(Nc1cccc(-c2cn3c(n2)SCC3)c1)c1ccc2c(c1)OCO2 | 18.1 µg/mL (≈ 49.5 µM) |
| Cc1cc(C)cc(Nc2nc3ccccc3c(=O)[nH]2)c1 | 0.2 µg/mL (≈ 0.754 µM) |
| OCC1(Cc2ccccc2)CCN(CCCC2CCCC2)CC1 | > 47.3 µg/mL |
| CCCN1CNc2c(c(=O)[nH]c(=S)n2CCc2ccccc2)C1 | 1.7 µg/mL (≈ 5.14 µM) |
| CC(=Nc1ccc2c(c1)CCC2)c1c(O)n(-c2ccccc2)c(=O)[nH]c1=O | < 0.3 µg/mL |
| CC(C)Cc1ccc(C(C)C(N)=NCCc2ccccc2)cc1.Cl (centres undefined) | 51.3 µg/mL |
| O=C(NCCNC(=O)c1cnccn1)c1ccc(Cl)c(Cl)c1 | 6.9 µg/mL (≈ 20.3 µM) |
| Br.CN(/N=C/c1ccncc1)C1=NCCN1 | > 42.6 µg/mL |
| Cc1c(C)c(C)c(CN2CCCC2)c(C)c1C | 29.4 µg/mL (≈ 127 µM) |
| CCC(OC(=O)c1nsc(Cl)c1Cl)C(=O)NC(C)(C)C (centres undefined) | 46.6 µg/mL (≈ 137 µM) |
| CCOC(=O)CSc1nc2cccnc2n1C | > 37.7 µg/mL |
| C=CCOc1ccccc1CN1CCCN(C)CC1 | 27.8 µg/mL (≈ 107 µM) |
| Cc1ccccc1OCC(=O)OCC(=O)Nc1ccc2c(c1)OCO2 | 14.9 µg/mL (≈ 43.4 µM) |

| SMILES | solubility kinetic |
| --- | --- |
| CCOc1ccc(NC(=O)COC(=O)c2ccc(S(=O)(=O)N3CCOCC3)cc2)cc1 | 25.9 µg/mL (≈ 57.7 µM) |
| CC(OC(=O)c1ccncc1)C(=O)Nc1cccc([N+](=O)[O-])c1 (centres undefined) | > 47.3 µg/mL |
| CC(C)c1nc2oc3c(NCCO)ncnc3c2c2c1COC(C)(C)C2 | 48.9 µg/mL (≈ 137 µM) |
| COc1cc(C(=O)N[C@H](C(=O)NC2CCCc3ccccc32)C(C)C)cc(OC)c1OC (some centres undefined) | 4.9 µg/mL (≈ 11.1 µM) |
| O=C(NC(=S)Nc1ccc(Br)c(Cl)c1)C1CC1 | < 0.4 µg/mL |
| COc1ccc(C2=C(c3ccc([N+](=O)[O-])cc3)C(=O)OC2)cc1 | 3.4 µg/mL (≈ 10.9 µM) |
| CCOC(=O)c1ccc(Oc2cc(C)nc(Cl)n2)cc1 | > 43.9 µg/mL |
| O=Cc1ccc(C(=O)OCC(=O)NC(=O)Nc2ccccc2F)cc1 | 28.9 µg/mL (≈ 83.9 µM) |
| O=C1CSC(=S)N1 | > 20 µg/mL |
| C/C(=N/NC(=O)C(C)n1nc(C)c([N+](=O)[O-])c1C)c1ccc(OCC(N)=O)cc1 (centres undefined) | > 60.4 µg/mL |
| CN(Cc1ccccc1)C(=O)COc1ccc2ccccc2c1 | < 0.7 µg/mL |
| CCCn1c(=N)c(C#N)cc2c(=O)n3cccc(C)c3nc21 | 2.3 µg/mL (≈ 7.84 µM) |
| O=C1CSC(c2cccc([N+](=O)[O-])c2)N1CCc1ccccc1 (centres undefined) | 25.8 µg/mL (≈ 78.6 µM) |
| Cc1cc(OC(F)F)ccc1NC(=S)NC1CCCC1 | > 45.1 µg/mL |
| Cc1cc(C)c2c(N)c(C(=O)N3CCc4ccccc4C3)sc2n1 | 5.5 µg/mL (≈ 16.3 µM) |
| Cc1ccc(-c2c(C(=O)O)c(C(=O)O)c3n2CSC3)cc1 | > 45.5 µg/mL |
| c1ccc(COc2ccccc2CNC2CCCC2)cc1 | 38.5 µg/mL (≈ 137 µM) |
| CC(c1nccs1)N(C)c1nc2nonc2nc1NC1CC1 (centres undefined) | 9.6 µg/mL (≈ 30.2 µM) |
| CC(C)=CC(=O)OCC(=O)NC1CCCc2ccccc21 (centres undefined) | 25 µg/mL (≈ 87 µM) |
| Cc1cc(C)nc(SCC(=O)N(C)C)n1 | 31.7 µg/mL (≈ 141 µM) |
| Cc1ccc(S(=O)(=O)CC(=O)NCc2ccccc2)cc1 | 29.7 µg/mL (≈ 97.9 µM) |
| CSc1cccc(NC(=S)NC(=O)CCc2ccccc2)c1 | 0.7 µg/mL (≈ 2.12 µM) |
| COc1ccc(CNC(=O)CSc2nc3cccnc3s2)cc1 | 36.3 µg/mL (≈ 105 µM) |
| CN(C)/C=N/C(=S)Nc1ccccc1 | > 31.1 µg/mL |

| SMILES | solubility kinetic |
| --- | --- |
| COc1ccc(-c2csc(Nc3ccccn3)n2)cc1 | < 0.2 µg/mL |
| Cc1ccc(-c2cc(C(=O)N3CCN(c4ccc(O)cc4)CC3)c3ccccc3n2)cc1 | 6.4 µg/mL (≈ 15.1 µM) |
| Cc1ccc(S(=O)(=O)CC(O)COc2ccccc2C#N)cc1 (centres undefined) | > 49.7 µg/mL |
| O=C(c1sccc1Cl)N1CCN(Cc2ccc3c(c2)OCO3)CC1 | > 54.7 µg/mL |
| O=C(COC(=O)c1ccc(Cl)nc1)Nc1ccc2c(c1)OCCO2 | 4.8 µg/mL (≈ 13.8 µM) |
| COc1ccc(C)cc1S(=O)(=O)n1cnc2ccccc21 | 6.8 µg/mL (≈ 22.5 µM) |
| Cc1ccc(C(=O)Cn2c(C(=O)O)cc3ccccc32)cc1 | > 44 µg/mL |
| COc1cc2c(cc1OC)C(C)N(C(=O)Nc1ccccc1)CC2 (centres undefined) | 39 µg/mL (≈ 119 µM) |
| COc1ccc(CNC(=S)Nc2cccc(F)c2)cc1 | 14.6 µg/mL (≈ 50.3 µM) |
| Cc1cccc(CN(C(=S)Nc2c(C)cccc2C)c2cccnc2)c1 | 16.9 µg/mL (≈ 46.7 µM) |
| Cc1cc(C)n2nc(SCC(=O)N3CCCCC3C)nc2n1 (centres undefined) | > 47.9 µg/mL |
| Cc1cccn2c(=O)c(C=O)c(N3CCN(C)CC3)nc12 | > 42.9 µg/mL |
| COc1cccc(CNc2ccc(N3CCCCC3)cc2)c1OC | 39.5 µg/mL (≈ 121 µM) |
| O=C(NCCc1ccccc1)C(=O)NCC1CCNCC1 | > 43.4 µg/mL |
| C=CCN(c1ccccc1)S(=O)(=O)c1cccc2cccnc12 | 34.9 µg/mL (≈ 108 µM) |
| COc1ccccc1Nc1nc(Cl)nc(NC(C)(C)C)n1 | 6.5 µg/mL (≈ 21.1 µM) |
| CCCC1Cc2[nH]c(=O)c(C#N)cc2CO1 (centres undefined) | > 32.7 µg/mL |
| Cc1noc(C)c1C(=O)Nc1cccc2ncccc12 | > 40.1 µg/mL |
| CCc1ccc(/C=C/c2c([N+](=O)[O-])c(=O)n(C)c(=O)n2C)cc1 | 7.6 µg/mL (≈ 24.1 µM) |
| Cc1ccnc(N2CCCC(C(=O)Nc3cccc(C)c3C)C2)n1 (centres undefined) | 0.6 µg/mL (≈ 1.85 µM) |
| COc1cccc(OC)c1OCCNCC1COc2ccccc2O1.Cl (centres undefined) | > 57.3 µg/mL |
| COC(=O)Cc1ccc(NC(=S)N2CCN(c3ccccn3)CC2)cc1 | 5 µg/mL (≈ 13.5 µM) |
| c1ccc(C2CC(c3ccccc3)C(c3ccccc3)N2)cc1 (centres undefined) | 8.4 µg/mL (≈ 28.1 µM) |
| CC(Oc1ccc(Br)cc1)C(=O)NCCCN1CCCC1=O (centres undefined) | > 55.4 µg/mL |

| SMILES | solubility kinetic |
| --- | --- |
| Cc1ccc2cc(C)c(SCC(=O)Nc3cc(C)on3)nc2c1 | < 0.2 µg/mL |
| O=C(c1ccccc1)C(O)C(c1ccccc1)N1CCOCC1 (centres undefined) | > 46.7 µg/mL |
| CN1CCc2c(sc3nc(NCCO)n(-c4cccc(Cl)c4)c(=O)c23)C1 | 58.3 µg/mL (≈ 149 µM) |
| CCOC(=O)C1CCN(c2ncnc3c(C)csc23)CC1 | 37.8 µg/mL (≈ 124 µM) |
| COc1cccc(Nc2nc(C)cc(C)c2C(N)=O)c1 | > 40.7 µg/mL |
| O=C(NCCCNC(=O)c1cccnc1)c1ccc(Cl)cc1 | 43.3 µg/mL (≈ 136 µM) |
| O=C(NNC(=S)Nc1ccc(F)c(Cl)c1)C1CC1 | > 43.2 µg/mL |
| Cc1cc(C)c(NC(=O)COC(=O)c2ccncc2)c(C)c1 | 35.6 µg/mL (≈ 119 µM) |
| N=C1C(c2nc3ccccc3[nH]2)=C(O)CN1C1CCCCC1 | 0.4 µg/mL (≈ 1.35 µM) |
| COc1ccc(-n2c(-c3ccccc3)c[n+]3c2CCC3)cc1.[Br-] | > 55.7 µg/mL |
| CC(=O)Nc1ccc(NC(=O)COC(=O)c2ccc([N+](=O)[O-])o2)cc1 | > 52.1 µg/mL |
| O=C(COC(=O)C1CC1)NC(=O)c1ccccc1 | > 37.1 µg/mL |
| Cc1cc(=O)[nH]c(SCC(=O)N2CCCCC2)n1 | > 40.1 µg/mL |
| CC(=O)Nc1ccc(S(=O)(=O)NCCc2c[nH]c3ccc(C)cc23)cc1 | 33.8 µg/mL (≈ 91 µM) |
| c1ccc(CN2CCN(c3nc4ccccc4s3)CC2)cc1 | 1 µg/mL (≈ 3.23 µM) |
| Cl.c1csc(CN2CCNCC2)c1 | > 38.3 µg/mL |
| O=C(O)C1C2CCC(O2)C1C(=O)Nc1cccc(Cl)c1 (centres undefined) | 40.6 µg/mL (≈ 137 µM) |
| COc1ccc(CCC(C)NCc2cccc(Br)c2)cc1 (centres undefined) | 34.1 µg/mL (≈ 97.9 µM) |
| CN(CC(=O)Nc1cccc(F)c1)CC(=O)N1CCCCC1 | > 46.1 µg/mL |
| Cc1ccc(C(=O)Nc2ccc(S(=O)(=O)N3CCOCC3)cc2)cc1Br | 0.5 µg/mL (≈ 1.14 µM) |
| Br.CCc1ccc(C2=CSC3=NCCN23)cc1 | > 46.7 µg/mL |
| O=C(CN1C(=O)c2ccccc2C1=O)Nc1cccc(Cl)c1 | 21.2 µg/mL (≈ 67.4 µM) |
| COc1ccc(OCCC(=O)OCC(=O)c2ccc[nH]2)cc1 | > 45.5 µg/mL |
| S=C(NCc1ccccc1)Nc1ccc(Oc2ccccc2)cc1 | 6.8 µg/mL (≈ 20.3 µM) |

| SMILES | solubility kinetic |
| --- | --- |
| Cc1onc(-c2ccccc2)c1C(=O)N=C(N)c1ccc(Cl)cc1 | 1.1 µg/mL (≈ 3.24 µM) |
| CC(C)(C)Nc1nc(-c2ccccn2)nc2ccccc12 | > 41.8 µg/mL |
| Cc1ccc(OCC(=O)NC(=S)Nc2ccc(Br)cn2)cc1 | 0.5 µg/mL (≈ 1.31 µM) |
| O=C(/C=C/c1ccccc1Cl)OCC(=O)c1ccc[nH]1 | 6.3 µg/mL (≈ 21.7 µM) |
| COc1ccccc1NC(=O)CNC(c1ccccc1)c1ccccc1 | 1.2 µg/mL (≈ 3.46 µM) |
| CCc1nc(Nc2ccccc2OC)c2oc3ccccc3c2n1.Cl | < 0.3 µg/mL |
| CCCCNc1nc(Cl)nc(Nc2ccc(C)cc2)n1 | 1.7 µg/mL (≈ 5.83 µM) |
| O=C1CCCN1Cc1ccccc1 | > 26.3 µg/mL |
| CC(=O)c1cc2c(cc1NC(=O)Cc1ccsc1)OCO2 | 10.5 µg/mL (≈ 34.6 µM) |
| O=C(CN1C(=O)c2ccccc2C1=O)N(CCO)Cc1ccccc1 | 48.7 µg/mL (≈ 144 µM) |
| Cc1cc(=O)oc2cc(OCC(=O)Nc3cccnc3)ccc12 | 10.5 µg/mL (≈ 33.8 µM) |
| CCCCCCCNc1cccc(C)c1 | < 0.4 µg/mL |
| Cc1ccccc1C(=O)NCCN1CCOCC1.Cl | > 42.7 µg/mL |
| C=CCNC(=S)N(C1CCCCC1)C1CCCCC1 | 21 µg/mL (≈ 74.9 µM) |
| O=C(Nc1ccccc1[N+](=O)[O-])C1COc2ccccc2O1 (centres undefined) | 1 µg/mL (≈ 3.33 µM) |
| CC(CNC(=O)c1ccc(N)cc1)NC(=O)c1ccc(N)cc1 (centres undefined) | 42.8 µg/mL (≈ 137 µM) |
| Cc1cc(C)nc(SCc2ccc([N+](=O)[O-])cc2)n1 | 6.1 µg/mL (≈ 22.2 µM) |
| Cc1ccc(N2CC(C(=O)N3CCOCC3)CC2=O)cc1Cl (centres undefined) | > 48.4 µg/mL |
| COc1ccc2cc(C(=O)NCC3CCCO3)[nH]c2c1 (centres undefined) | > 41.1 µg/mL |
| CCOC(=O)C1CCCN(Cc2cc(=O)oc3cc(C)ccc23)C1 (centres undefined) | 40.5 µg/mL (≈ 123 µM) |
| O=C(COc1ccc(C(=O)c2ccccc2)cc1)Nc1ncccc1O | 24.9 µg/mL (≈ 71.5 µM) |
| CCOc1ccc(/C=C/c2nc(C#N)c(NCCCOC)o2)cc1 | 3.4 µg/mL (≈ 10.4 µM) |
| O=C(COC(=O)c1ccc(Cl)nc1)c1ccc2c(c1)OCCO2 | 14.7 µg/mL (≈ 44 µM) |
